Reference: patent publication US20230346831A1, “METHODS FOR TREATING […] USING LOW DOSE CARBON MONOXIDE” (priority 2020, published 2023)
“And” between values parts separate entries of the source, which are not always exact repeats. Identical values can stand only once.

System: MDA-MB-231/TGL cells
Experiment: metabolomic assay (polar metabolite profiling, mass spectrometry)
Type: cell-based, human
Experimental: Cells were seeded in a 10 cm cell culture plate with DMEM containing 10% FBS, 0.2 mM L-glutamine and 1% penicillin/streptomycin. After 16 hours of incubation, metabolites were extracted from the cells using 80% methanol. The remaining steps were carried out with no change according to the methods of Goncalves et al, PNAS, 115:4, E743-E752 (2018). All data analyses were done using MetaboAnalyst.
7 × 10^6 cells were seeded in 10-cm cell culture plates with DMEM containing 10% FBS, 0.2 mM L-glutamine and 1% penicillin/streptomycin. Additionally, MCF7/TGL/pQ was cultured in media containing 0.5 µgml^-1 puromycin and 25 mM HEPES. After 16 hours of incubation, metabolites were extracted from the cells using 80% methanol. The remaining steps were carried out by Weill Cornell Medicine Proteomics and Metabolomics Core Facility according to M. D. Goncalves et al., Proc Natl Acad Sci USA 115, E743-E752 (2018). All data analyses were done using MetaboAnalyst 4.0 (www.metaboanalyst.ca/).
To investigate whether 250 ppm CO mimics hypoxia, the HiF1α protein levels were examined in CO treated MCF7/TGL and MDA-MB-231/TGL cells. […] To determine whether 250 ppm CO affects metabolism, polar metabolites were profiled using two breast cancer cell lines, MCF7/TGL and MDA-MB-231/TGL (FIGS. 7-9).

[1] = MDA-MB-231/TGL cells treated with CO (250 ppm), replicates CO 1-3
[2] = MDA-MB-231/TGL cells, 250 ppm CO, 16 hours

[C-]#[O+] [CO, Carbon monoxide]
Peak Height of metabolite intensity: L-Aspartic acid (HMDB00191) [1]: 9,529,167 and 11,274,240 and 16,105,810
Peak Height of metabolite intensity: L-Carnitine (HMDB00062) [1]: 180,708,600 and 186,528,100 and 206,022,400
Peak Height of metabolite intensity: L-Cystathionine (HMDB00099) [1]: 371,785 and 449,627 and 589,036
Peak Height of metabolite intensity: L-Dihydroorotic acid (HMDB03349) [1]: 281,053 and 429,139 and 448,915
Peak Height of metabolite intensity: L-Glutamic acid (HMDB00148) [1]: 655,681,000 and 727,466,400 and 916,546,500
Peak Height of metabolite intensity: L-Glutamine (HMDB00641) [1]: 1,601,450,000 and 1,636,785,000 and 1,523,599,000
Peak Height of metabolite intensity: L-Histidine (HMDB00177) [1]: 120,776,800 and 113,578,300 and 158,867,000
Peak Height of metabolite intensity: L-Isoleucine (HMDB00172) [1]: 271,615,500 and 275,153,400 and 327,851,400
Peak Height of metabolite intensity: L-Kynurenine (HMDB00684) [1]: 280,930 and 306,374 and 392,315
Peak Height of metabolite intensity: L-Lactic acid (HMDB00190) [1]: 289,904,000 and 340,883,500 and 383,011,600
Peak Height of metabolite intensity: L-Leucine (HMDB00687) [1]: 283,061,200 and 273,188,600 and 323,263,900
Peak Height of metabolite intensity: L-Lysine (HMDB00182) [1]: 24,306,150 and 24,075,250 and 28,401,380
Peak Height of metabolite intensity: L-Methionine (HMDB00696) [1]: 84,626,580 and 79,234,880 and 99,088,640
Peak Height of metabolite intensity: L-Palmitoylcarnitine (HMDB00222) [1]: 73,260 and 167,693 and 194,186
Peak Height of metabolite intensity: L-Phenylalanine (HMDB00159) [1]: 221,726,300 and 225,785,500 and 288,325,000
Peak Height of metabolite intensity: L-Proline (HMDB00162) [1]: 612,301,800 and 622,349,000 and 718,183,500
Peak Height of metabolite intensity: L-Serine (HMDB00187) [1]: 47,600,670 and 48,117,350 and 49,703,860
Peak Height of metabolite intensity: L-Threonine (HMDB00167) [1]: 137,793,200 and 134,164,900 and 175,180,900
Peak Height of metabolite intensity: L-Tryptophan (HMDB00929) [1]: 29,250,240 and 30,006,710 and 37,673,960
Peak Height of metabolite intensity: L-Tyrosine (HMDB00158) [1]: 62,958,740 and 63,148,990 and 80,943,860
Peak Height of metabolite intensity: L-Valine (HMDB00883) [1]: 112,753,800 and 120,589,500 and 133,489,100
Peak Height of metabolite intensity: Malic acid (HMDB00744) [1]: 185,995,600 and 208,411,100 and 232,110,400
Peak Height of metabolite intensity: Mannitol (HMDB00765) [1]: 9,124,205 and 9,515,589 and 10,944,240
Peak Height of metabolite intensity: Methionine sulfoxide (HMDB02005) [1]: 1,343,863 and 1,483,506 and 1,747,311
Peak Height of metabolite intensity: Methylimidazoleacetic acid (HMDB02820) [1]: 1,358,938 and 1,418,950 and 1,508,563
Peak Height of metabolite intensity: Myoinositol (HMDB00211) [1]: 29,719,830 and 34,248,940 and 40,470,300
Peak Height of metabolite intensity: N6,N6,N6-Trimethyl-L-lysine (HMDB01325) [1]: 1,450,139 and 1,666,314 and 1,913,626
Peak Height of metabolite intensity: N6-Acetyl-L-lysine (HMDB00206) [1]: 127,774 and 112,788 and 139,608
Peak Height of metabolite intensity: N-Acetyl-L-alanine (HMDB00766) [1]: 3,499,773 and 3,556,484 and 4,596,263
Peak Height of metabolite intensity: N-Acetyl-L-aspartic acid (HMDB00812) [1]: 82,644,790 and 91,504,070 and 102,958,000
Peak Height of metabolite intensity: N-Acetyl-L-methionine (HMDB11745) [1]: 2,318,960 and 1,894,539 and 2,276,345
Peak Height of metabolite intensity: N-Acetyl-glucosamine 1-phosphate (HMDB01367) [1]: 1,300,461 and 800,586 and 850,336
Peak Height of metabolite intensity: N-Acetylasparagine (HMDB06028) [1]: 90,904 and 92,805 and 102,592
Peak Height of metabolite intensity: N-Acetylaspartylglutamic acid (HMDB01067) [1]: 473,464 and 613,919 and 690,837
Peak Height of metabolite intensity: N-Acetylglutamic acid (HMDB01138) [1]: 7,524,119 and 8,837,337 and 8,010,711
Peak Height of metabolite intensity: N-Acetylglutamine (HMDB06029) [1]: 1,923,159 and 2,058,882 and 2,006,294
Peak Height of metabolite intensity: N-Acetylornithine (HMDB03357) [1]: 261,750 and 259,387 and 327,139
Peak Height of metabolite intensity: N-Acetylputrescine (HMDB02064) [1]: 5,287,508 and 7,257,189 and 5,943,667
Peak Height of metabolite intensity: N-Formyl-L-methionine (HMDB01015) [1]: 2,242,009 and 2,343,563 and 2,318,203
Peak Height of metabolite intensity: NAD (HMDB00902) [1]: 17,332,970 and 21,051,080 and 23,992,650
Peak Height of metabolite intensity: NADH (HMDB01487) [1]: 583,067 and 148,307 and 116,715
Peak Height of metabolite intensity: NADP (HMDB00217) [1]: 120,286 and 98,434 and 96,478
Peak Height of metabolite intensity: NADPH (HMDB00221) [1]: 71,492 and 67,909 and 76,928
Peak Height of metabolite intensity: Niacinamide (HMDB01406) [1]: 1,982,720 and 1,686,510 and 1,871,343
Peak Height of metabolite intensity: Nicotinamide ribotide (HMDB00229) [1]: 110,026 and 75,372 and 93,843
Peak Height of metabolite intensity: Ornithine (HMDB00214) [1]: 960,744 and 1,035,848 and 1,261,077
Peak Height of metabolite intensity: Orotic acid (HMDB00226) [1]: 303,308 and 293,998 and 226,604
Peak Height of metabolite intensity: Oxidized glutathione (HMDB03337) [1]: 3,793,739 and 4,422,168 and 4,949,576
Peak Height of metabolite intensity: Oxoglutaric acid (HMDB00208) [1]: 40,551,530 and 45,257,220 and 44,892,300
Peak Height of metabolite intensity: Pantothenic acid (HMDB00210) [1]: 66,785,200 and 78,653,480 and 81,031,300
Peak Height of metabolite intensity: Phenylacetylglycine (HMDB00821) [1]: 1,773,254 and 1,725,235 and 1,760,408
Peak Height of metabolite intensity: Phenyllactic acid (HMDB00779) [1]: 59,693 and 75,824 and 89,853
Peak Height of metabolite intensity: Phosphoenolpyruvic acid (HMDB00263) [1]: 1,119,695 and 505,583 and 468,849
Peak Height of metabolite intensity: Phosphorylcholine (HMDB01565) [1]: 926,340,400 and 954,637,100 and 1,004,940,000
Peak Height of metabolite intensity: Propionylcamitine (HMDB00824) [1]: 42,262,630 and 48,738,950 and 53,591,860
Peak Height of metabolite intensity: Pyridoxine (HMDB00239) [1]: 9,272,513 and 10,102,820 and 10,351,980
Peak Height of metabolite intensity: Pyroglutamic acid (HMDB00267) [1]: 95,285,270 and 98,786,160 and 116,343,300
Peak Height of metabolite intensity: Pyruvic acid (HMDB00243) [1]: 2,402,001 and 2,700,020 and 2,237,894
Peak Height of metabolite intensity: Riboflavin (HMDB00244) [1]: 84,676 and 97,270 and 112,665
Peak Height of metabolite intensity: S-Adenosylmethionine (HMDB01185) [1]: 6,948,937 and 8,437,885 and 9,944,495
Peak Height of metabolite intensity: S-Lactoylglutathione (HMDB01066) [1]: 2,114,224 and 2,485,483 and 1,817,914
Peak Height of metabolite intensity: Sedoheptulose 1,7-bisphosphate (HMDB60274) [1]: 119,260 and 114,671 and 139,219
Peak Height of metabolite intensity: Succinic acid (HMDB00254) [1]: 9,808,415 and 11,432,620 and 14,473,460
Peak Height of metabolite intensity: Taurine (HMDB00251) [1]: 250,114,800 and 184,320,000 and 217,876,200
Peak Height of metabolite intensity: Taurochenodesoxycholic acid (HMDB00951) [1]: 47,031 and 60,620 and 60,122
Peak Height of metabolite intensity: Thiamine (HMDB00235) [1]: 24,404,230 and 28,664,720 and 27,656,500
Peak Height of metabolite intensity: Threonic acid (HMDB00943) [1]: 107,442,800 and 103,948,700 and 114,088,000
Peak Height of metabolite intensity: Thymidine 5′-triphosphate (HMDB01342) [1]: 177,094 and 147,940 and 156,549
Peak Height of metabolite intensity: Thymidine (HMDB00273) [1]: 143,606 and 96,280 and 76,717
Peak Height of metabolite intensity: Thymine (HMDB00262) [1]: 962,069 and 884,966 and 960,234
Peak Height of metabolite intensity: Ureidosuccinic acid (HMDB00828) [1]: 1,132,717 and 1,612,814 and 1,811,192
Peak Height of metabolite intensity: Uric acid (HMDB00289) [1]: 2,415,527 and 1,430,740 and 933,580
Peak Height of metabolite intensity: Uridine 5′-diphosphate (HMDB00295) [1]: 2,964,858 and 3,462,504 and 2,781,952
Peak Height of metabolite intensity: Uridine 5′-monophosphate (HMDB00288) [1]: 904,984 and 1,359,673 and 975,233
Peak Height of metabolite intensity: Uridine (HMDB00296) [1]: 1,893,519 and 318,302 and 299,157
Peak Height of metabolite intensity: Uridine diphosphate glucose (HMDB00286) [1]: 4,959,327 and 5,703,347 and 6,869,287
Peak Height of metabolite intensity: Uridine diphosphate-N-acetylglucosamine (HMDB00290) [1]: 20,151,160 and 26,809,930 and 32,502,900
Peak Height of metabolite intensity: Uridine triphosphate (HMDB00285) [1]: 1,308,516 and 1,268,414 and 1,538,242
Peak Height of metabolite intensity: Urocanic acid (HMDB00301) [1]: 334,329 and 651,672 and 192,858
Peak Height of metabolite intensity: Xanthine (HMDB00292) [1]: 1,967,615 and 1,894,384 and 2,180,514
Peak Height of metabolite intensity: Xanthylic acid (HMDB01554) [1]: 36,455 and 11,062 and 9,617
Peak Height of metabolite intensity: cis-Aconitic acid (HMDB00072) [1]: 20,740,980 and 23,097,840 and 24,649,890
Peak Height of metabolite intensity: dCTP (HMDB00998) [1]: 7,042
Peak Height of metabolite intensity: dGDP (HMDB00960) [1]: 10,335,950 and 11,215,290 and 10,659,650
Peak Height of metabolite intensity: dUMP (HMDB01409) [1]: 484,834 and 490,872 and 603,149
citric acid and phosphoenolpyruvic acid [2]: did not provide statistically significant results
nine common metabolites (fumaric acid, L-Dihydroorotic acid, D-2-Hydroxyglutaric, malic acid, NAD, GDP-glucose, pyruvic acid, inosinic acid, oxoglutaric acid) [2]: significantly downregulated
pyruvic acid, oxoglutaric acid, malic acid, and fumaric acid (TCA intermediates) [2]: significantly downregulated
abundance of metabolites tested (metabolomics profiling) (MDA-MB-231/TGL cells, 250 ppm carbon monoxide for 16 hours): reduced the abundance of the majority of metabolites tested
